Counter-ions that a name gives are not always drawn. Blank lines part the entries; values can stand above or below the compound they belong to.
Legend:
[1] = molecular target: T1, EGFR L858R T790M in NCI-H1975 cell line (Homo sapiens, UniProt P00533, L858R/T790M); assay: NCI-H1975 pEGFR AlphaLISA assay; format: cell-based; settings: NCI-H1975 cells (EGFR L858R T790M), p-EGFR (Tyr1068), 4-5 hours incubation; read-out: Ext pEGFR H1975 GMean IC50 (nM) Protocol: @Pharmaron AlphaLISA (Num)
T1 construct: host or cells: NCI-H1975
Experimental: The NCI-H1975 cells were seeded at 12.5K/well in 22 μL into 384 well opti plate (PerkinElmer, 6007299) and adhering overnight at 37C/5% CO2. On the next day, the test compounds and DMSO control were added into H1975 cell plate followed by incubation at 37C/5% CO2 for 4-5 hours. […] Then 5 μL of a donor bead mix was added to each well followed by overnight incubation at room temperature in dark. On the next day, the plate was read at a compatible plate reader to obtain pEGFR signal. Percent of pEGFR inhibition was plotted against log concentration of compounds to generate IC50 values.

EGFR (L858R T790M C797S) = molecular target: T2, EGFR (L858R T790M C797S) (Homo sapiens, UniProt P00533, C797S/L858R/T790M); assay: Biochemical EGFR inhibition assay (Caliper mobility shift), EGFR LRTMCS mutant; settings: LRTMCS (PH) IC50 (nM) @ 1 mM ATP (Num)
T2 construct: purchased SignalChem E10-122VG
Experimental: Reactions proceeded until between 10% to 20% total peptides were phosphorylated at room temperature (25° C.) and were terminated with 35 mM 2,2′,2″,2′″-(ethane-1,2-diyldinitrilo)tetraacetic acid (EDTA). Product was detected using the Caliper mobility shift detection method where the phosphorylated peptide (product) and substrate were electrophoretically separated and measured. Percent activity was plotted against log concentration of compound and points to generate an apparent IC50.

T2 sequence (P00533 25-1210 T790M/C797S/L858R): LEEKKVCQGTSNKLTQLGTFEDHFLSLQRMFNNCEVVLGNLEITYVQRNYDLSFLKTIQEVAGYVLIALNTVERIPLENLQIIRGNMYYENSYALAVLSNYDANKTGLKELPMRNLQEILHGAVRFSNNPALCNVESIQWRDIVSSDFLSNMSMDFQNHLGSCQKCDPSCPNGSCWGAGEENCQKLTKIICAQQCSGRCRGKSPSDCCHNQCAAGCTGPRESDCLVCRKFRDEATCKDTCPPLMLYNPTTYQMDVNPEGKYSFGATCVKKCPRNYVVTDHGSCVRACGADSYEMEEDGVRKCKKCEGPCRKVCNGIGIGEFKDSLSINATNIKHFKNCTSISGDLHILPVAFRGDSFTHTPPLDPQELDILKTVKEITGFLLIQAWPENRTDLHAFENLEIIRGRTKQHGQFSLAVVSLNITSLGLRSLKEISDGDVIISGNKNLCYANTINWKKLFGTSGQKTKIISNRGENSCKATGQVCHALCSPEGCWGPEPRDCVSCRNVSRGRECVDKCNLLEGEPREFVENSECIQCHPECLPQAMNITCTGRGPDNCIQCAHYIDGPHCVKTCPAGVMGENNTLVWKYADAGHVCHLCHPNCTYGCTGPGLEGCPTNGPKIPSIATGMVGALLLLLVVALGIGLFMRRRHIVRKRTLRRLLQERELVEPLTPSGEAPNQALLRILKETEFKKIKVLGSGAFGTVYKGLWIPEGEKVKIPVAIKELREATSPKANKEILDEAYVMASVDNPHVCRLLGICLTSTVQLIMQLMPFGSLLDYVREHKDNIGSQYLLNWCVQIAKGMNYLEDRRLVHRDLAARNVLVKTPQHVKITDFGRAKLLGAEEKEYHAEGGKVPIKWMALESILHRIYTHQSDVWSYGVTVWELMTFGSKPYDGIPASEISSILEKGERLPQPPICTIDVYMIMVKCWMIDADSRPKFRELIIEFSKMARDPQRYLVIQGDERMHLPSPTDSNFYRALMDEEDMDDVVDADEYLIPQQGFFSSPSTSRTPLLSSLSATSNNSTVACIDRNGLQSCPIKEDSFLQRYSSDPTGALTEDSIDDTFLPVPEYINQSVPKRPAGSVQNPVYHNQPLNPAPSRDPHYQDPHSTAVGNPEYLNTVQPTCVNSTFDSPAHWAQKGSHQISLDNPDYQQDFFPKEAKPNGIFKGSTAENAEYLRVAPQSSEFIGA
T1 sequence (P00533 25-1210 T790M/L858R): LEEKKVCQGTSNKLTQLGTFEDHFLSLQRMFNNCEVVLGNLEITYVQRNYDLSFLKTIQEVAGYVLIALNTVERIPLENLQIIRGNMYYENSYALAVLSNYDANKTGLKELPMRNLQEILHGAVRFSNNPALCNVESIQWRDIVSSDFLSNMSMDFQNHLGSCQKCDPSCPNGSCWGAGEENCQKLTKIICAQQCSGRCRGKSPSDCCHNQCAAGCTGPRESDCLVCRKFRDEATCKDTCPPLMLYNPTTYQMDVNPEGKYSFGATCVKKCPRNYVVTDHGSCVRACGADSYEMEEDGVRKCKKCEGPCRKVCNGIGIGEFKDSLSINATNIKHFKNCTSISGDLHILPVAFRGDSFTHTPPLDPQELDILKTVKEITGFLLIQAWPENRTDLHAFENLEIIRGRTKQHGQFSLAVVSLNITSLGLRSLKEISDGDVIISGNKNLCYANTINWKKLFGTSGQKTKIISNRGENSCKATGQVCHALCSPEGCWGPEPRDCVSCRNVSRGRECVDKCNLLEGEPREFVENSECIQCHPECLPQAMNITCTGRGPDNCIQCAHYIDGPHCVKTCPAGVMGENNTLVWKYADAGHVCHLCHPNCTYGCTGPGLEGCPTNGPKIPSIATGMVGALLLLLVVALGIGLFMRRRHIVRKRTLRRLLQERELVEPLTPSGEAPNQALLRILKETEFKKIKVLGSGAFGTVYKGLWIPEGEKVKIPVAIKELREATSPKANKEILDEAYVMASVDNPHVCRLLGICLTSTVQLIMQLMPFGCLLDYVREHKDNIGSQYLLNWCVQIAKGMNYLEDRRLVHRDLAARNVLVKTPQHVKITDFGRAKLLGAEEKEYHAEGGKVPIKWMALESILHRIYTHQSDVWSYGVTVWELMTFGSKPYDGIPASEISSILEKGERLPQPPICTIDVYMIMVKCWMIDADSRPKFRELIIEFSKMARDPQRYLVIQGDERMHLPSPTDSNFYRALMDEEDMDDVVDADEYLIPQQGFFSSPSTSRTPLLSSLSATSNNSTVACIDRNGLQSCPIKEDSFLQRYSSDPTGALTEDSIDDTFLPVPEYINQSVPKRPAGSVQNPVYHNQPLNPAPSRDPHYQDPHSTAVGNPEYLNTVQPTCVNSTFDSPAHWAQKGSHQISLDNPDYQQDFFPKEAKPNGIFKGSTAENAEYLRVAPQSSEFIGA

Structure (SMILES): Cc1nncn1CCOc1ccc(C(C)C)c2cc(Nc3ccnc(N4CC[C@](C)(O)[C@H](F)C4)n3)ncc12 [Example 30, (3R,4S)-3-fluoro-1-(4-((5-isopropyl-8-(2-(3-methyl-4H-1,2,4-triazol-4-yl)ethoxy)isoquinolin-3-yl)amino)pyrimidin-2-yl)-4-methylpiperidin-4-ol]
- IC50 [1]: > 50 nM
- IC50 (EGFR (L858R T790M C797S)): < 15 nM

Structure (SMILES): CC(C)c1cnc(C(=O)N[C@@H]2CNC[C@H]2F)c2cnc(Nc3ccnc(N4CC[C@@H](O)[C@@](C)(F)C4)n3)cc12 (racemic) [Example 86, 6-((2-((3S,4R)-3-fluoro-4-hydroxy-3-methylpiperidin-1-yl)pyrimidin-4-yl)amino)-N-((3R,4R)-4-fluoropyrrolidin-3-yl)-4-isopropyl-2,7-naphthyridine-1-carboxamide trifluoroacetate and 6-((2-((3S,4R)-3-fluoro-4-hydroxy-3-methylpiperidin-1-yl)pyrimidin-4-yl)amino)-N-((3S,4S)-4-fluoropyrrolidin-3-yl)-4-isopropyl-2,7-naphthyridine-1-carboxamide trifluoroacetate]
- IC50 [1]: > 50 nM
- IC50 (EGFR (L858R T790M C797S)): 20 to 30 nM

Structure (SMILES): CC(C)c1cnc(C(=O)NCC(F)F)c2cnc(Nc3ccnc(N4CC[C@@H](O)[C@@](C)(F)C4)n3)cc12 [Example 67, N-(2,2-difluoroethyl)-6-((2-((3S,4R)-3-fluoro-4-hydroxy-3-methylpiperidin-1-yl)pyrimidin-4-yl)amino)-4-isopropyl-2,7-naphthyridine-1-carboxamide]
- IC50 [1]: > 50 nM
- IC50 (EGFR (L858R T790M C797S)): < 15 nM

Structure (SMILES): CC(C)c1ccc(OCCn2ccnn2)c2cnc(Nc3ccnc(N4CC[C@](C)(O)[C@H](F)C4)n3)cc12 [Example 32, (3R,4S)-1-(4-((8-(2-(1H-1,2,3-triazol-1-yl)ethoxy)-5-isopropylisoquinolin-3-yl)amino)pyrimidin-2-yl)-3-fluoro-4-methylpiperidin-4-ol]
- IC50 [1]: > 50 nM
- IC50 (EGFR (L858R T790M C797S)): < 15 nM

Structure (SMILES): CC(C)c1cnc(C(=O)N[C@H](C)CF)c2cnc(Nc3ccnc(N4CC[C@@H](O)[C@@](C)(F)C4)n3)cc12 [Example 71, 6-((2-((3S,4R)-3-fluoro-4-hydroxy-3-methylpiperidin-1-yl)pyrimidin-4-yl)amino)-N-((R)-1-fluoropropan-2-yl)-4-isopropyl-2,7-naphthyridine-1-carboxamide]
- IC50 [1]: > 50 nM
- IC50 (EGFR (L858R T790M C797S)): 20 to 30 nM

Structure (SMILES): CO[C@@H]1CCN(c2nccc(Nc3cc4c(C(C)C)ncc(OCCn5cnnc5)c4cn3)n2)C[C@@H]1F [Example 55, 8-(2-(4H-1,2,4-triazol-4-yl)ethoxy)-N-(2-((3S,4R)-3-fluoro-4-methoxypiperidin-1-yl)pyrimidin-4-yl)-5-isopropyl-2,6-naphthyridin-3-amine]
- IC50 [1]: > 50 nM
- IC50 (EGFR (L858R T790M C797S)): 15 to 20 nM

Structure (SMILES): CC(C)c1cnc(C(=O)N[C@H]2CNC[C@H]2F)c2cnc(Nc3ccnc(N4CC[C@@H](O)[C@@](C)(F)C4)n3)cc12 (racemic) [Example 85, 6-((2-((3S,4R)-3-fluoro-4-hydroxy-3-methylpiperidin-1-yl)pyrimidin-4-yl)amino)-N-((3S,4R)-4-fluoropyrrolidin-3-yl)-4-isopropyl-2,7-naphthyridine-1-carboxamide trifluoroacetate and 6-((2-((3S,4R)-3-fluoro-4-hydroxy-3-methylpiperidin-1-yl)pyrimidin-4-yl)amino)-N-((3R,4S)-4-fluoropyrrolidin-3-yl)-4-isopropyl-2,7-naphthyridine-1-carboxamide trifluoroacetate]
- IC50 [1]: 10 to 20 nM
- IC50 (EGFR (L858R T790M C797S)): < 15 nM

Structure (SMILES): CC(C)c1cnc(C(=O)NC2CN(CCF)C2)c2cnc(Nc3ccnc(N4CC[C@@H](O)[C@@](C)(F)C4)n3)cc12 [Example 80, 6-((2-((3S,4R)-3-fluoro-4-hydroxy-3-methylpiperidin-1-yl)pyrimidin-4-yl)amino)-N-(1-(2-fluoroethyl)azetidin-3-yl)-4-isopropyl-2,7-naphthyridine-1-carboxamide]
- IC50 [1]: 20 to 30 nM
- IC50 (EGFR (L858R T790M C797S)): < 15 nM

Structure (SMILES): CC(C)c1cnc(C(=O)NCCN(C)C)c2cnc(Nc3ccnc(N4CC[C@@H](O)[C@@](C)(F)C4)n3)cc12 [Example 77, N-(2-(dimethylamino)ethyl)-6-((2-((3S,4R)-3-fluoro-4-hydroxy-3-methylpiperidin-1-yl)pyrimidin-4-yl)amino)-4-isopropyl-2,7-naphthyridine-1-carboxamide]
- IC50 [1]: 30 to 50 nM
- IC50 (EGFR (L858R T790M C797S)): < 15 nM

Structure (SMILES): CC(C)c1ccc(OCCN2CCOCC2)c2cnc(Nc3ccnc(N4CC[C@](C)(O)[C@H](F)C4)n3)cc12 [Example 31, (3R,4S)-3-fluoro-1-(4-((5-isopropyl-8-(2-morpholinoethoxy)isoquinolin-3-yl)amino)pyrimidin-2-yl)-4-methylpiperidin-4-ol]
- IC50 [1]: > 50 nM
- IC50 (EGFR (L858R T790M C797S)): < 15 nM

Structure (SMILES): CC(C)c1cnc(C(N)=O)c2cnc(Nc3ccnc(N4CC[C@@H](O)[C@@](C)(F)C4)n3)cc12 (single isomer, unassigned) [Example 61, 6-((2-((3S,4R)-3-fluoro-4-hydroxy-3-methylpiperidin-1-yl)pyrimidin-4-yl)amino)-4-isopropyl-2,7-naphthyridine-1-carboxamide or 6-((2-((3R,4S)-3-fluoro-4-hydroxy-3-methylpiperidin-1-yl)pyrimidin-4-yl)amino)-4-isopropyl-2,7-naphthyridine-1-carboxamide]
- IC50 [1]: > 50 nM
- IC50 (EGFR (L858R T790M C797S)): 20 to 30 nM

Other lines, results leading:

- IC50 [1]: 10 to 20 nM
- IC50 (EGFR (L858R T790M C797S)): < 15 nM
Structure (SMILES): CC(C)c1ccc(OC[C@H]2CCC(=O)N2C)c2cnc(Nc3ccnc(N4CCC(C)(O)CC4)n3)cc12 (single isomer, unassigned) [Example 19, (R)-5-(((3-((2-(4-hydroxy-4-methylpiperidin-1-yl)pyrimidin-4-yl)amino)-5-isopropylisoquinolin-8-yl)oxy)methyl)-1-methylpyrrolidin-2-one or (S)-5-(((3-((2-(4-hydroxy-4-methylpiperidin-1-yl)pyrimidin-4-yl)amino)-5-isopropylisoquinolin-8-yl)oxy)methyl)-1-methylpyrrolidin-2-one]

- IC50 [1]: > 50 nM
- IC50 (EGFR (L858R T790M C797S)): 15 to 20 nM
Structure (SMILES): CCNC(=O)c1ncc(C(C)C)c2cc(Nc3ccnc(N4CC[C@@H](O)[C@@](C)(F)C4)n3)ncc12 [Example 65, N-ethyl-6-((2-((3S,4R)-3-fluoro-4-hydroxy-3-methylpiperidin-1-yl)pyrimidin-4-yl)amino)-4-isopropyl-2,7-naphthyridine-1-carboxamide]

- IC50 [1]: > 50 nM
- IC50 (EGFR (L858R T790M C797S)): 15 to 20 nM
Structure (SMILES): [2H]C([2H])([2H])O[C@@H]1CCN(c2nccc(Nc3cc4c(C(C)C)ccc(OCCn5cnnc5)c4cn3)n2)C[C@@H]1F [Example 45, 8-(2-(4H-1,2,4-triazol-4-yl)ethoxy)-N-(2-((3S,4R)-3-fluoro-4-(methoxy-d3)piperidin-1-yl)pyrimidin-4-yl)-5-isopropylisoquinolin-3-amine]

- IC50 [1]: > 50 nM
- IC50 (EGFR (L858R T790M C797S)): 15 to 20 nM
Structure (SMILES): CC(C)c1cnc(C(=O)N[C@H]2CC2(F)F)c2cnc(Nc3ccnc(N4CC[C@@H](O)[C@@](C)(F)C4)n3)cc12 (single isomer, unassigned) [Example 63, N—((S)-2,2-difluorocyclopropyl)-6-((2-((3S,4R)-3-fluoro-4-hydroxy-3-methylpiperidin-1-yl)pyrimidin-4-yl)amino)-4-isopropyl-2,7-naphthyridine-1-carboxamide or N—((R)-2,2-difluorocyclopropyl)-6-((2-((3S,4R)-3-fluoro-4-hydroxy-3-methylpiperidin-1-yl)pyrimidin-4-yl)amino)-4-isopropyl-2,7-naphthyridine-1-carboxamide]

- IC50 [1]: > 50 nM
- IC50 (EGFR (L858R T790M C797S)): 15 to 20 nM
Structure (SMILES): CNCCO[C@@H]1CCN(c2nccc(Nc3cc4c(C(C)C)ccc(OC[C@@H]5COC(=O)N5C)c4cn3)n2)C[C@@H]1F [Example 54, (R)-4-(((3-((2-((3S,4R)-3-fluoro-4-(2-(methylamino)ethoxy)piperidin-1-yl)pyrimidin-4-yl)amino)-5-isopropylisoquinolin-8-yl)oxy)methyl)-3-methyloxazolidin-2-one]

- IC50 [1]: > 50 nM
- IC50 (EGFR (L858R T790M C797S)): < 15 nM
Structure (SMILES): CO[C@@H]1CCN(c2nccc(Nc3cc4c(C(C)C)ccc(OCCn5cnnc5)c4cn3)n2)C[C@@H]1F [Example 40, 8-(2-(4H-1,2,4-triazol-4-yl)ethoxy)-N-(2-((3S,4R)-3-fluoro-4-methoxypiperidin-1-yl)pyrimidin-4-yl)-5-isopropylisoquinolin-3-amine]

- IC50 [1]: > 50 nM
- IC50 (EGFR (L858R T790M C797S)): 30 to 100 nM
Structure (SMILES): CC(C)c1cnc(C(=O)NCC(C)(C)O)c2cnc(Nc3ccnc(N4CC[C@@H](O)[C@@](C)(F)C4)n3)cc12 [Example 70, 6-((2-((3S,4R)-3-fluoro-4-hydroxy-3-methylpiperidin-1-yl)pyrimidin-4-yl)amino)-N-(2-hydroxy-2-methylpropyl)-4-isopropyl-2,7-naphthyridine-1-carboxamide]

- IC50 [1]: > 50 nM
- IC50 (EGFR (L858R T790M C797S)): 15 to 20 nM
Structure (SMILES): CO[C@@H]1CCN(c2nccc(Nc3cc4c(C(C)C)cnc(NCCN(C)C)c4cn3)n2)C[C@@H]1F [Example 3, N^1-(2-(dimethylamino)ethyl)-N^6-(2-((3S,4R)-3-fluoro-4-methoxypiperidin-1-yl)pyrimidin-4-yl)-4-isopropyl-2,7-naphthyridine-1,6-diamine]
